Assay results as given in patent US4927919A, “Chartreusin derivatives and salts thereof” (Ishihara Sangyo Kaisha, Ltd., priority 1985, dated 1990).

Legend:
P-388 leukemia cells = experiment: Antitumor activity against P-388 leukemia cells (i.p. implanted, i.v. drug); format: in vivo, BDF1 mice; details: for response vs control in vivo at 20 mg/kg / response vs control in vivo at 40 mg/kg: Mus musculus, P388, iv, 720 h, read-out: T/C of MST; for response vs control in vivo at 20 mg/kg: dose b: 20 mg/kg/d × 3 (days 1, 5, 9); for response vs control in vivo at 40 mg/kg: dose c: 40 mg/kg/d × 3 (days 1, 5, 9)
Protocol: BDF1 mice were implanted intraperitoneally with P-388 leukemia cells at a rate of 1×10^6 cells/mouse, and each drug to be tested was administered intravenously on the first, fifth and ninth days, or on the first and fifth days after the implantation. […] The T/C (%) was calculated based on the following equation: [formula]
The drugs tested were as follows: solutions prepared by dissolving each of compound Nos. 34, 36 and 43 to 46 in physiological saline; suspension or solutions prepared by dissolving each of compound Nos. 35, 38 and 49 to 55 in dimethylacetamide, followed by adding thereto a small amount of a surface active agent (e.g., Tween-80) and then physiological saline; and suspension or solutions prepared by mixing each of the other compounds and a small amount of a surface active agent (e.g., Tween-80), followed by adding thereto physiological saline.

cancer = details: different sites; cited from earlier work
L-1210 leukemia = details: cancer inoculated i.p., drug i.p.; cited from earlier work
P-388 leukemia = details: cancer inoculated i.p., drug i.p.; cited from earlier work
B-16 melanoma [1] = details: cancer inoculated i.p., drug i.p.; cited from earlier work
[2] = Intestinal excretion percentage of drugs; format: in vivo; details: DDY mice, i.v. 40 mg/kg-b.w., 2 hours
Protocol: Each drug to be tested was administered to DDY mice intravenously at a dose of 40 mg/kg-b.w., and after 2 hours, contents of the small intestine and the large intestine and feces were extracted with a mixed solvent of chloroform and methanol. The extract was concentrated and each compound to be tested was quantitatively determined by high-speed liquid chromatography.
The drug tested was solution which prepared by dissolving the compound No. 17 in a small amount of dimethylacetoamide, followed by adding thereto a small amount of a surface active agent (e.g., Tween-80 ) and physiological saline.

[3] = in vivo; cited from earlier work
[4] = Acute toxicity (LD50, single intravenous administration); set-up: species or system day mice; details: mouse, in vivo, mice, single i.v.
Description: In Table 15 are shown acute toxicity values (LD50, mg/kg) in day mice in the case of intravenously administering (once) each of the compounds of this invention in the form of preparations shown in the Preparation Examples shown in Table 16.

B-16 melanoma [5] = experiment: Antitumor activity against B-16 melanoma (i.v. drug); format: in vivo, BDF1 mice; details: 60-day observation
Protocol: BDF1 mice were implanted intraperitoneally with a B-16 melanoma cell suspension in an amount of 0.5 ml/mouse, and each drug to be tested was administered intravenously on the first, fifth and ninth days after the implantion. […] The T/C (%) was calculated in the same manner as aforementioned (1--1).
The B-16 melanoma cell suspension was prepared as follows. Tumor fragment, maintained by subcutaneous passages in C57BL/6 mice, were aseptically removed and passed through a sterile stainless-steel mesh. Thus obtained tumor was dispersed in a culture medium or physiological saline in an amount of 9 ml per 1 g of tumor.

L-1210 leukemia cells = experiment: Antitumor activity against L-1210 leukemia cells (i.p. implanted, i.v. drug); format: in vivo, BDF1 mice; details: 30-day observation
Protocol: BDF1 mice were implanted intraperitoneally with L-1210 leukemia cells at a rate of 1×10^5 cells/mouse, and each drug to be tested was administered intravenously on the first, fifth and ninth days after the implantation. […] The T/C (%) was calculated in the same manner as aforementioned (1--1).
The drugs tested were suspensions or solutions which prepared by mixing each compound to be tested and a small amount of a surface active agent (e.g., Tween-80), followed by adding thereto physiological saline.

| Compound | LD50 ([4]; Preparation Example 2) [mg/kg] | response vs control in vivo at 20 mg/kg (P-388 leukemia cells; i.v., 30-day observation) [%] | response vs control in vivo at 40 mg/kg (P-388 leukemia cells; i.v., 30-day observation) [%] | T/C (%) of MST (B-16 melanoma [5]; 60 mg/kg × 3 (days 1, 5, 9)) [%] | T/C (%) MST (L-1210 leukemia cells; 40 mg/kg × 3 (days 1, 5, 9)) [%] | LD50 ([4]; Preparation Example 1) [mg/kg] | other results |
| --- | --- | --- | --- | --- | --- | --- | --- |
| CO[C@H]1[C@@H](O)[C@@H](C)O[C@H](O[C@H]2[C@H](Oc3cccc4c(O)c5c(=O)oc6ccc(C)c7c(=O)oc(c34)c5c67)O[C@H](C)[C@H](O)[C@@H]2O)[C@@H]1O [Chartreusin, chartreusin] |  |  |  |  |  |  | T/C (%) (P-388 leukemia cells; comparison, chartreusin suspension in 0.2M Na2HPO4 / N,N-dimethylacetamide (4:1)): 105%; effect when site of cancer inoculation and site of administration were different (in words) (cancer): not effective at all; effect against L-1210 leukemia (in words) (L-1210 leukemia): effective; effect against P-388 leukemia (in words) (P-388 leukemia): effective; effect against B-16 melanoma (in words) (B-16 melanoma [1]): effective; Intestinal excretion percentage [(total amount of excretion/dose) × 100] [2]: 37.6%; biliary excretion relative to absorption to tissues (in words) [3]: biliary excretion of chartreusin essentially has the precedence over absorption thereof to tissues |
| COC1C(O)C(C)OC(OC2C(Oc3cccc4c(OC(=O)c5cccn5C)c5c(=O)oc6ccc(C)c7c(=O)oc(c34)c5c67)OC(C)C3OC(c4ccccc4)OC32)C1O (centres unmarked) [Compound 2] | ≥ 60 | 189 | 230 | 141 | 243 |  |  |
| COC1C(O)C(C)OC(OC2C(Oc3cccc4c(OC(=O)c5ccco5)c5c(=O)oc6ccc(C)c7c(=O)oc(c34)c5c67)OC(C)C3OC(c4ccccc4)OC32)C1O (centres unmarked) [Compound 6] | ≥ 60 | 199 | 217 | 159 |  |  |  |
| COC1C(O)C(C)OC(OC2C(Oc3cccc4c(OC(=O)c5cccs5)c5c(=O)oc6ccc(C)c7c(=O)oc(c34)c5c67)OC(C)C3OC(C)(C)OC32)C1O (centres unmarked) [Compound 10] |  |  | 162 |  |  |  | LD50 ([4]; Preparation Example 4): ≥ 80 mg/kg; T/C of MST (P-388 leukemia cells; i.v., dose f: 80 mg/kg/d × 3 (days 1, 5, 9), 30-day observation): 207%; T/C (%) MST (L-1210 leukemia cells; 80 mg/kg × 3 (days 1, 5, 9)): 140% |
| COC1C(O)C(C)OC(OC2C(Oc3cccc4c(OC(=O)c5cccs5)c5c(=O)oc6ccc(C)c7c(=O)oc(c34)c5c67)OC(C)C3OC(c4ccccc4)OC32)C1O (centres unmarked) [Compound 11, 6-O-(2-thienyl-carbonyl)-3',4'-O-benzylidene-chartreusin] | ≥ 60 | 217 |  | 143 |  |  |  |
| COC1C(O)C(C)OC(OC2C(Oc3cccc4c(OC(=O)c5c(-c6ccccc6)noc5C)c5c(=O)oc6ccc(C)c7c(=O)oc(c34)c5c67)OC(C)C3OC(c4ccccc4)OC32)C1O (centres unmarked) [Compound 14, 6-O-{4-(5-methyl-3-phenylisoxazolyl)-carbonyl}-3',4'-O-benzylidene-chartreusin] |  | 207 | 250 | 143 | 208 | ≥ 60 |  |
| COC1C(O)C(C)OC(OC2C(Oc3cccc4c(OC(=O)c5cc6ccccc6[nH]5)c5c(=O)oc6ccc(C)c7c(=O)oc(c34)c5c67)OC(C)C3OC(c4ccccc4)OC32)C1O (centres unmarked) [Compound 17, 6-O-(2-indolyl-carbonyl)-3',4'-O-benzylidene-chartreusin] |  | 199 | 255 | 141 | 181 | ≥ 60 | Intestinal excretion percentage [(total amount of excretion/dose) × 100] [2]: 5.4% |
| CCn1cc(C(=O)Oc2c3cccc(OC4OC(C)C5OC(c6ccccc6)OC5C4OC4OC(C)C(O)C(OC)C4O)c3c3oc(=O)c4c(C)ccc5oc(=O)c2c3c54)c(=O)c2ccc(C)nc21 (centres unmarked) [Compound 33, 6-O-{3-(1,4-dihydro-1-ethyl-7-methyl-4-oxo-1,8-naphthyridinyl)-carbonyl}-3',4'-O-benzylidene-chartreusin] |  | 218 | 274 |  |  | ≥ 40 | T/C (%) of MST (B-16 melanoma [5]; 40 mg/kg × 3 (days 1, 5, 9)): 142% |
